# Reference: ChEMBL document CHEMBL1155404, “Synthesis, chiral resolution, and determination of novel furan lignan derivatives with potent anti-tumor activity” (Bioorg Med Chem Lett, 2010)
# pIC50: −log10 of the molar value.
# Tests used:
# HeLa = assay: Antitumor activity against human HeLa cells by MTT assay; format: functional, cell-based
# [1] = Antitumor activity against human QGY7701 cells by MTT assay; format: functional, cell-based
smiles,measurement,setting,value
O=c1[nH]cc(F)c(=O)[nH]1 [FLUOROURACIL],pIC50,HeLa,4.19
same,pIC50,[1],4.17
